Experiment: recombinant UMI read abundance after kanamycin selection (control-corrected) (log10(CPM+1)); higher = more efficient recombination; extreme values may be limits of the assay; sequences stand for … in AGTGCAGAGAAAATCGGCCAGTTTTCTCTGCCTGCAGTCCGCATGCCGTGGGACCCCTTGGGTTCTAACCTGTTGCCTAGATTTATGCAGCGGACTGCCTTTCTCCCAAAGTGATAAACCGG…AGGTTGGTTTCACT; site = the 11-nt donor
Outline: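 Each donor and donor-binding-loop pair was tracked by a 12-nt UMI on a plasmid carrying a promoterless kanamycin gene. With a second plasmid supplying a fixed target and T7-inducible IS621 bridge recombinase, the pool was plated in Escherichia coli on IPTG (0.07 mM) plus kanamycin or unselected. Sequencing of recombinant UMIs across the donor–target junction gave counts expressed as log10(CPM+1) after replicate averaging and control-derived scaling.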
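Also: IS621 bridge recombinase in Escherichia coli cells against a fixed T5 target plasmid.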

Sequence	recombinant UMI read abundance (log10)
ATGTCGTCATGGACCGGTTTTCCCGGTAATCCGTATTTGTA (site ATGTCGTCTTA)	1.95
ATGTGCCCATGGACCGGTTTTCCCGGTAATCCGTATTTGCG (site ATGTGCCCTCG)	0
ATGTTCCCATGGACCGGTTTTCCCGGTAATCCGTATTTGTG (site AAGTTCCCTCA)	0.0217
ATGTTCCCATGGACCGGTTTTCCCGGTAATCCGTATTTGTG (site ACGTTCCCTCA)	0.0446
ATGTTCCCATGGACCGGTTTTCCCGGTAATCCGTATTTGTG (site AGGTTCCCTCA)	0.0415
ATGTTCCCATGGACCGGTTTTCCCGGTAATCCGTATTTGTG (site ATGTTCCCTCA)	0.419
ATGTTCGCATGGACCGGTTTTCCCGGTAATCCGTATTTGTA (site ATGTTCGCTTA)	2.46
ATGTTTGCATGGACCGGTTTTCCCGGTAATCCGTATTTGAT (site ATGTTTGCTAT)	2.16
ATTAAACCATGGACCGGTTTTCCCGGTAATCCGTATTTGCC (site ATTAAACCTGG)	0
ATTAAAGCATGGACCGGTTTTCCCGGTAATCCGTATTTGTA (site ATTAAAGCTTA)	2.6
ATTAAGACATGGACCGGTTTTCCCGGTAATCCGTATTTGGT (site ATTAAGACTAC)	1.07
ATTAAGACATGGACCGGTTTTCCCGGTAATCCGTATTTGGT (site ATTCAGACTAC)	0.417
ATTAAGACATGGACCGGTTTTCCCGGTAATCCGTATTTGGT (site ATTGAGACTAC)	0.577
ATTAAGACATGGACCGGTTTTCCCGGTAATCCGTATTTGGT (site ATTTAGACTAC)	0.285
ATTAGGCCATGGACCGGTTTTCCCGGTAATCCGTATTTGTG (site ATTAGGCCTCA)	0.00967
ATTCAAGCATGGACCGGTTTTCCCGGTAATCCGTATTTGAG (site ATACAAGCTCT)	1.07
ATTCAAGCATGGACCGGTTTTCCCGGTAATCCGTATTTGAG (site ATCCAAGCTCT)	0.605
ATTCAAGCATGGACCGGTTTTCCCGGTAATCCGTATTTGAG (site ATGCAAGCTCT)	0.501
ATTCAAGCATGGACCGGTTTTCCCGGTAATCCGTATTTGAG (site ATTCAAGCTCT)	1.16
ATTCAGACATGGACCGGTTTTCCCGGTAATCCGTATTTGGT (site ATTAAGACTAC)	0.402
ATTCAGACATGGACCGGTTTTCCCGGTAATCCGTATTTGGT (site ATTCAGACTAC)	0.566
ATTCAGACATGGACCGGTTTTCCCGGTAATCCGTATTTGGT (site ATTGAGACTAC)	0.305
ATTCAGACATGGACCGGTTTTCCCGGTAATCCGTATTTGGT (site ATTTAGACTAC)	0.0116

Sequence	recombinant UMI read abundance (log10)
ATTCATACATGGACCGGTTTTCCCGGTAATCCGTATTTGTT (site ATTCATACTAA)	0.291
ATTGAGACATGGACCGGTTTTCCCGGTAATCCGTATTTGGG (site ATTGAGACTAC)	0.0103
ATTGAGACATGGACCGGTTTTCCCGGTAATCCGTATTTGGG (site ATTGAGACTCC)	0.0142
ATTGAGACATGGACCGGTTTTCCCGGTAATCCGTATTTGGG (site ATTGAGACTGC)	0
ATTGAGACATGGACCGGTTTTCCCGGTAATCCGTATTTGGG (site ATTGAGACTTC)	0.0235
ATTGAGTCATGGACCGGTTTTCCCGGTAATCCGTATTTGGT (site ATTGAGACTAC)	0.0845
ATTGAGTCATGGACCGGTTTTCCCGGTAATCCGTATTTGGT (site ATTGAGCCTAC)	0.00525
ATTGAGTCATGGACCGGTTTTCCCGGTAATCCGTATTTGGT (site ATTGAGGCTAC)	0
ATTGAGTCATGGACCGGTTTTCCCGGTAATCCGTATTTGGT (site ATTGAGTCTAC)	2.29
ATTGTAACATGGACCGGTTTTCCCGGTAATCCGTATTTGCT (site AATGTAACTAG)	1.49
ATTGTAACATGGACCGGTTTTCCCGGTAATCCGTATTTGCT (site ACTGTAACTAG)	1.9
ATTGTAACATGGACCGGTTTTCCCGGTAATCCGTATTTGCT (site AGTGTAACTAG)	1.5
ATTGTAACATGGACCGGTTTTCCCGGTAATCCGTATTTGCT (site ATTGTAACTAG)	2.15
ATTGTTGCATGGACCGGTTTTCCCGGTAATCCGTATTTGAC (site ATTGTTGCTGT)	2.18
ATTGTTGCATGGACCGGTTTTCCCGGTAATCCGTATTTGCT (site ATTGTTGCTAG)	2.37
ATTTAGACATGGACCGGTTTTCCCGGTAATCCGTATTTGCG (site ATTTAGACTCG)	1.16
ATTTAGTCATGGACCGGTTTTCCCGGTAATCCGTATTTGTT (site CACATCCCTTC)	0.0539
ATTTCTACATGGACCGGTTTTCCCGGTAATCCGTATTTGTT (site ATTTCTACTAA)	0.0251
ATTTGATCATGGACCGGTTTTCCCGGTAATCCGTATTTGTG (site ATTTGATCTCA)	1.71
CAAACAGCATGGACCGGTTTTCCCGGTAATCCGTATTTGCT (site CAAACAGCTAG)	2.26
CAAACAGCATGGACCGGTTTTCCCGGTAATCCGTATTTGCT (site CAACCAGCTAG)	0.00434
CAAACAGCATGGACCGGTTTTCCCGGTAATCCGTATTTGCT (site CAAGCAGCTAG)	0.00437
CAAACAGCATGGACCGGTTTTCCCGGTAATCCGTATTTGCT (site CAATCAGCTAG)	0

Sequence	recombinant UMI read abundance (log10)
CAAAGAACATGGACCGGTTTTCCCGGTAATCCGTATTTGCG (site CAAAGAACTCG)	2.53
CAAAGGGCATGGACCGGTTTTCCCGGTAATCCGTATTTGAC (site CAAAGGGCTGT)	2.62
CAAATTTCATGGACCGGTTTTCCCGGTAATCCGTATTTGTG (site CAAATTTCTCA)	0.763
CAACAGACATGGACCGGTTTTCCCGGTAATCCGTATTTGAA (site CAACAGACTTT)	1.88
CAACCAGCATGGACCGGTTTTCCCGGTAATCCGTATTTGCT (site CAAACAGCTAG)	0
CAACCAGCATGGACCGGTTTTCCCGGTAATCCGTATTTGCT (site CAACCAGCTAG)	0
CAACCAGCATGGACCGGTTTTCCCGGTAATCCGTATTTGCT (site CAAGCAGCTAG)	0
CAACCAGCATGGACCGGTTTTCCCGGTAATCCGTATTTGCT (site CAATCAGCTAG)	0
CAACCCACATGGACCGGTTTTCCCGGTAATCCGTATTTGAT (site CAACCCACTAT)	0.946
CAACCTGCATGGACCGGTTTTCCCGGTAATCCGTATTTGGC (site CAACCTGCTGC)	0
CAACTAACATGGACCGGTTTTCCCGGTAATCCGTATTTGGA (site CAACTAACTTC)	1.93
CAACTAACATGGACCGGTTTTCCCGGTAATCCGTATTTGGA (site CCACTAACTTC)	0.226
CAACTAACATGGACCGGTTTTCCCGGTAATCCGTATTTGGA (site CGACTAACTTC)	0.548
CAACTAACATGGACCGGTTTTCCCGGTAATCCGTATTTGGA (site CTACTAACTTC)	0.341
CAACTAGCATGGACCGGTTTTCCCGGTAATCCGTATTTGCA (site CAACTAGCTTG)	1.13
CAACTATCATGGACCGGTTTTCCCGGTAATCCGTATTTGAT (site CAACTATCTAT)	0.885
CAAGAATCATGGACCGGTTTTCCCGGTAATCCGTATTTGAC (site CAAGAATCTGT)	2.88
CAAGAATCATGGACCGGTTTTCCCGGTAATCCGTATTTGAC (site CTAGTATCTGT)	0.416
CAAGACACATGGACCGGTTTTCCCGGTAATCCGTATTTGGG (site CAAGACACTCC)	1.28
CAAGACACATGGACCGGTTTTCCCGGTAATCCGTATTTGGG (site CAAGCCACTCC)	0.00576
CAAGACACATGGACCGGTTTTCCCGGTAATCCGTATTTGGG (site CAAGGCACTCC)	0.0364
CAAGACACATGGACCGGTTTTCCCGGTAATCCGTATTTGGG (site CAAGTCACTCC)	0.274

Reference: the supplement of paper PMC11208160
